Experimental data as given in patent US7416724B2, “Diagnosis and treatment of diseases arising from defects in the tuberous sclerosis pathway” (The Regents of the University of Michigan, priority 2002, dated 2008).
“Also recorded” adds a separate entry of the source. Where two headings read alike, the source gives them in different places.

Assays:
S6K [1] = experiment: Phosphorylation of S6K, immunoblot with anti-phospho S6K antibody; assay type: cell-based; settings: for phosphorylation of S6K on T389: endogenous S6K
Description: (§1) Anti-S6K, anti-phospho S6K, anti-mTOR, anti-phospho mTOR, anti-Akt, anti-phospho Akt, antiphospho 4EBP-1 and anti-phospho ERK antibodies were from Cell Signalling Inc. Anti-TSC2 and anti-Myc antibodies were from Santa Cruz Biotechnology (Santa Cruz, Calif.). Anti-HA and anti-Flag antibodies were from Covance (Princeton, N.J.) and Sigma (St Louis, Mo.), respectively. HA-tagged S6K1 (II) and GST-S6 constructs were obtained from J. Blenis (Columbia Univ., NY, N.Y.). […] All other DNA constructs, including H-RasV12, PTEN, PTEN-CS, Akt, Akt-KM, Flag-ubiquitin and Flag-4E-BP1, were laboratory stock. All mutant constructs of TSC2 were created by PCR mutagenesis and verified by DNA sequencing. LY294002 was from Calbiochem (San Diego, Calif.); phosphatase was from New England Biolabs (Beverly, Mass.). MG132 was from the Peptide Institute. Cycloheximide and wortmannin were from Sigma. D-PBS was from Gibco. Rapamycin was from Cell Signalling.
(§2) HEK293 cells were seeded and maintained in Dulbecco's modified Eagle's medium (DMEM) containing 10% fetal bovine serum (FBS). Transfection was performed in serum-free conditions using Lipofectamine reagent (Invitrogen, Carlsbad, Calif.) in accordance with the manufacturer's instructions. In brief, 4 h after transfection, the cells were recovered in DMEM containing 10% FBS for 16 h and then starved for […]. Cells were then lysed in lysis buffer (10 mM Tris-HCl at pH 7.5, 100 mM sodium chloride, 1% NP-40, 1% Triton X-100, 50 mM sodium fluoride, 2 mM EDTA, 1 mM phenyl methylsulphonyl fluoride, 10 g ml^−1 leupeptin and 10 g ml^−1 aprotinine) and immunoprecipitated with the indicated antibodies and protein G-Sepharose beads. Immunocomplexes were analyzed by SDS-polyacrylamide gel electrophoresis (PAGE).

TSC2 [2] = experiment: In vivo 32P-labelling and two-dimensional phosphopeptide mapping of TSC2; assay type: cell-based, rat
Description: HEK293 cells were cotransfected with HA-tagged TSC2, Myc-tagged TSC1 and the indicated plasmids. Cells were phosphate- and serum-starved for 4 h before incubation with 0.25 mCi ml^−1 32P-orthophosphate (ICN) for 4 h.
Cells were washed once with ice-cold PBS and lysed. HA-tagged TSC2 was immunoprecipitated, resolved by SDS-PAGE and transferred to a PVDF membrane. Phosphorylated TSC2 was visualized by autoradiography and phosphopeptide mapping was then performed. In brief, the phosphorylated TSC2 bands were excised, fixed in methanol and incubated in 500 1 of 0.5% polyvinylpyrrolidone-40 dissolved in 100 mM acetic acid for 30 min at 37° C. The sample were then digested with 20 g of TPCK-treated trypsin (Sigma) at 37° C. in 75 mM ammonium bicarbonate buffer at pH 8.0 containing 5% acetonitrile. After digestion, samples were dried under vacuum and suspended in 10 1 of water. Samples were spotted onto a cellulose plate and first dimensional electrophoresis was performed using 1% ammonium bicarbonate buffer at pH 8.9. The plates were separated by chromatography in the second dimension in chromatography buffer (n-butanol:pyridine:acetic acid:water; 20:24:6:30). The plates were dried and phosphopeptides were visualized by autoradiography.

[3] = test system: LEF (TSC2-/- epithelial) cells; experiment: Cell death / apoptosis of LEF cells; assay type: cell-based; settings: vector and wild type TSC2 expressing LEF cells
S6K-dC104 = experiment: Thr 389 phosphorylation and kinase activity of rapamycin-resistant mutant S6K-dC104; assay type: cell-based; settings: FIG. 7a
Description: For the S6K assays, HEK293 cells grown in six-well plates were transfected with 10-20 ng HA-S6K constructs, with or without various plasmids, as indicated in the figures. HA-S6K was immunoprecipitated from serum-starved cells with an anti-HA antibody and analyzed by in vitro kinase assay using purified GST-S6 as a substrate (Pearson et al., EMBO J. 14, 5279-5287 (1995)).

AMPK [4] = settings: Corton et al., 1995; cited from earlier work
[5] = test system: eukaryotic elongation factor 2 (eEF2); settings: Horman et al., 2002; cited from earlier work
S6K [6] = settings: Kimura et al., 2003; Krause et al., 2002; cited from earlier work
Akt = experiment: Phosphorylation of Akt, immunoblot; assay type: cell-based
Description: as §1
(§3) HEK293 cells were seeded and maintained in Dulbecco's modified Eagle's medium (DMEM) containing 10% fetal bovine serum (FBS). Transfection was performed in serum-free conditions using Lipofectamine reagent (Invitrogen, Carlsbad, Calif.) in accordance with the manufacturer's instructions. […] Immunocomplexes were analyzed by SDS-polyacrylamide gel electrophoresis (PAGE).

TSC2 [7] = experiment: TSC2 mobility shift on SDS-PAGE; assay type: cell-based; settings: for mobility of TSC2 / 2-DG induced mobility shift: HEK293 cells, 10 μM, added 30 minutes before 2-DG, FIG. 11C
Description: as §2

4EBP1 [8] = experiment: Phosphorylation of 4EBP1, immunoblot; assay type: cell-based
Description: as §1, §2

S6 = experiment: Phosphorylation of S6, immunoblot; assay type: cell-based; settings: FIG. 8C
Description: as §2

mTOR = experiment: Phosphorylation of mTOR at Ser 2448, immunoblot with anti-phospho-mTOR antibody; assay type: cell-based; settings: 25 mM, FIG. 8C
Description: as §1, §3

AMPK [9] = experiment: AMPK activation (T172 phosphorylation); assay type: cell-based; settings: 25 mM
intracellular ATP [10] = experiment: Intracellular ATP levels and AMP/ATP ratio; assay type: cell-based; settings: cells treated with 25 mM
AMPK and TSC2 = experiment: Co-immunoprecipitation of AMPK and TSC2; assay type: cell-based
Description: as §2

HEK293 cells = experiment: Cell size of HEK293 cells; assay type: cell-based; settings: 12.5 mM 2-DG, TSC2 RNAi, or 20 nM rapamycin for 72 hours, FIG. 14D
TSC1 = TSC1 mobility on SDS-PAGE; assay type: cell-based; settings: FIG. 11A
Description: as §2

S6K [11] = settings: concentrations between 20 and 100 mM (Dennis et al., 2001); cited from earlier work
4EBP1 [12] = settings: concentrations between 20 and 100 mM (Dennis et al., 2001); cited from earlier work
intracellular ATP [13] = settings: concentrations between 20 and 100 mM (Dennis et al., 2001); cited from earlier work
[14] = EEF8 (TSC2-/-) fibroblasts, vector infected, FIG. 13C
[15] = EEF8 cells expressing wild type TSC2, FIG. 13C
[16] = depletion of cellular ATP, FIG. 8A

insulin: stimulus of the insulin-Akt pathway, used at 400 nM
phosphorylation of Thr 389, Thr 421 and Ser 424 of S6K (S6K [1]; FIG. 1b): stimulated
phosphorylation of TSC2 phosphopeptides (TSC2 [2]; insulin (400 nM), LY294002 or rapamycin (20 nM), FIG. 3c): slightly increased phosphorylation

COc1cc([C@@H]2c3cc4c(cc3[C@@H](O[C@@H]3O[C@@H]5CO[C@@H](C)O[C@H]5[C@H](O)[C@H]3O)[C@H]3COC(=O)[C@H]23)OCO4)cc(OC)c1O [etoposide]
cell death [3]: caused cell death

CO[C@H]1C[C@@H]2CC[C@@H](C)[C@@](O)(O2)C(=O)C(=O)N2CCCC[C@H]2C(=O)O[C@H]([C@H](C)C[C@@H]2CC[C@@H](O)[C@H](OC)C2)CC(=O)[C@H](C)/C=C(\C)[C@@H](O)[C@@H](OC)C(=O)[C@H](C)C[C@H](C)/C=C/C=C/C=C/1C [rapamycin]
phosphorylation of Thr 389 in S6K-dC104 (S6K-dC104): not inhibited

OC[C@@H](O)[C@@H](O)[C@H](O)[C@H](O)CO [mannitol]
phosphorylation of S6K on T389 (S6K [1]; 25 mM, FIG. 8C): had little effect
phosphorylation of S6K (S6K [1]; 100 mM, FIG. 8C): significantly inhibited

NC(=O)c1ncn([C@@H]2O[C@H](COP(=O)(O)O)[C@@H](O)[C@H]2O)c1N [AICAR, 5-aminoimidazole-4-carboxyamide ribonucleotide]
AMPK activation (AMPK [4]): activate AMPK
phosphorylation of eEF2 [5]: increase phosphorylation
S6K activity (S6K [6]): inhibit S6K activity

c1cc(-c2cnn3cc(-c4ccc(OCCN5CCCCC5)cc4)cnc23)ccn1 [Compound C]
S6K dephosphorylation induced by glucose deprivation (S6K [1]; FIG. 11F, listed as AMPK inhibitor): significantly blocked; also recorded: partially blocks
inhibitory effect of 2-DG on S6K phosphorylation (S6K [1]; HEK 293 cells, FIG. 11E, listed as AMPK inhibitor): significantly reversed; also recorded: blocks the 2-DG induced dephosphorylation
Akt phosphorylation (Akt; HEK 293 cells, AMPK inhibitor treatment): had no effect
mobility of TSC2 / 2-DG induced mobility shift (TSC2 [7]): blocks the 2-DG induced mobility shift
mobility of TSC2 / 2-DG induced mobility shift (TSC2 [7]; listed as compound C): increased the mobility

O=CC[C@@H](O)[C@H](O)[C@H](O)CO [2-DG, 2-deoxy-glucose]
phosphorylation of S6K on T389 (S6K [1]; 25 mM, FIG. 8C): effectively inhibited; also recorded: dephosphorylation
S6K phosphorylation as a function of treatment time (S6K [1]; 25 mM, time course, FIG. 8E): concomitant dephosphorylation
S6K phosphorylation (S6K [1]; [14]): caused little decrease
S6K phosphorylation (S6K [1]; [15]): significantly decreased
phosphorylation of S6K (S6K [1]; [16]): caused a dephosphorylation
4EBP1 phosphorylation (4EBP1 [8]; EEF4 (TSC2+/+) cells, FIG. 10G): inhibition of phosphorylation
4EBP1 phosphorylation (4EBP1 [8]; [14]): caused little decrease
4EBP1 phosphorylation (4EBP1 [8]; [15]): significantly decreased
phosphorylation of endogenous 4EBP1 (4EBP1 [8]; FIG. 8C): specifically inhibits; also recorded: dephosphorylation
phosphorylation of 4EBP1 (4EBP1 [8]; [16]): caused a dephosphorylation
phosphorylation of endogenous S6 (S6): dephosphorylation
phosphorylation of mTOR S2448 (mTOR): inhibited; also recorded: dephosphorylation
Akt phosphorylation (Akt; 25 mM, FIG. 8C): had little effect
T172 phosphorylation in AMPK (AMPK [9]; FIG. 8D): dramatic increase; also recorded: induces phosphorylation
AMPK activation as a function of treatment time (AMPK [9]; time course, FIG. 8E): rapid AMPK activation
mobility shift of TSC2 (TSC2 [7]; FIG. 11A): mobility shift
phosphorylation of TSC2 phosphopeptides (TSC2 [2]; 25 and 40 mM, FIG. 12A): enhanced phosphorylation of several peptides; also recorded: induce TSC2 phosphorylation on multiple spots
ATP levels (intracellular ATP [10]; FIG. 8F): statistically significant reduction; also recorded: decreases
AMP/ATP ratio (intracellular ATP [10]; FIG. 8G): increases
interaction between endogenous AMPK and overexpressed TSC2 (AMPK and TSC2; FIG. 9D): enhances the interaction
interaction between endogenous AMPK and TSC2 (co-immunoprecipitation) (AMPK and TSC2; HEK293 cells, FIG. 9A, B): interact preferentially; also recorded: enhanced; also recorded: stimulates the interaction
cell size (HEK293 cells): decreases cell size; also recorded: significantly decreased cell size
mobility of TSC1 (TSC1): did not alter the mobility
S6K phosphorylation (S6K [11]): inhibition
4EBP1 phosphorylation (4EBP1 [12]): inhibition
AMPK activation (AMPK [4]): activate AMPK
reduction of intracellular ATP levels (intracellular ATP [13]): 20 to 50%
phosphorylation of eEF2 [5]: increase phosphorylation
S6K activity (S6K [6]): inhibit S6K activity

CC(=O)c1c(O)c(C)c(O)c(Cc2c(O)c3c(c(C(=O)/C=C/c4ccccc4)c2O)OC(C)(C)C=C3)c1O [Rottlerin]
S6K phosphorylation (S6K [1]; EEF4 (TSC2+/+) fibroblasts, FIG. 10F): caused a decrease
phosphorylation of S6K (S6K [1]; [16]): caused a dephosphorylation
phosphorylation of 4EBP1 (4EBP1 [8]; [16]): caused a dephosphorylation

N#CC(C#N)=NNc1ccc(OC(F)(F)F)cc1 [FCCP]
S6K phosphorylation (S6K [1]): caused a decrease
phosphorylation of S6K (S6K [1]): caused a dephosphorylation
phosphorylation of 4EBP1 (4EBP1 [8]): caused a dephosphorylation
